These results are taken from patent publication US8513232B2, “Substituted spirocyclic piperidine derivatives as histamine-3 (H3) receptor ligands” (Cephalon, Inc., priority 2008, dated 2013).

The target of one data set is T1, human H3 receptor (Homo sapiens, UniProt Q9Y5N1).
T1 construct: expressed in transfected cells
As to the kind of experiment: Human H3 radioligand binding ([3H]-N-alpha-methylhistamine, SPA). To be noted: human H3 binding, Table D; read-out: Human H3 Ki. In a few lines:
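SPA competition binding on membranes from CHO cells stably expressing human H3 receptor (10 μg protein/well) with ~1 nM [3H]-N-alpha-methylhistamine and compound at 0.01 nM-30 μM. Incubation 4 h at room temperature in 50 mM Tris-HCl pH 7.4, 5 mM MgCl2, 0.1% BSA; non-specific binding defined with 10 μM clobenpropit.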

The target of data set [1] is T2, rat histamine H3 receptor (Rattus norvegicus, UniProt Q9QYN8).
T2 construct: encoding the entire 445-amino-acid rat histamine H3 receptor; expressed in transfected cells; membrane preparation
Kind of data set: Rat H3 radioligand binding ([3H]-N-alpha-methylhistamine, SPA). The conditions noted are these: rat H3 binding, Table D; read-out: Rat H3 Ki. In a few lines:
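Membranes from CHO-A3 cells stably expressing full-length rat H3 receptor (10 μg protein/well) incubated 4 h at room temperature, protected from light, with ~1 nM [3H]-N-alpha-methylhistamine and compound (0.01 nM-30 μM) in 50 mM Tris HCl pH 7.4, 5 mM MgCl2, 0.1% BSA. Binding read by SPA; 10 μM clobenpropit defined non-specific binding.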

T1 sequence (Q9Y5N1 whole entry): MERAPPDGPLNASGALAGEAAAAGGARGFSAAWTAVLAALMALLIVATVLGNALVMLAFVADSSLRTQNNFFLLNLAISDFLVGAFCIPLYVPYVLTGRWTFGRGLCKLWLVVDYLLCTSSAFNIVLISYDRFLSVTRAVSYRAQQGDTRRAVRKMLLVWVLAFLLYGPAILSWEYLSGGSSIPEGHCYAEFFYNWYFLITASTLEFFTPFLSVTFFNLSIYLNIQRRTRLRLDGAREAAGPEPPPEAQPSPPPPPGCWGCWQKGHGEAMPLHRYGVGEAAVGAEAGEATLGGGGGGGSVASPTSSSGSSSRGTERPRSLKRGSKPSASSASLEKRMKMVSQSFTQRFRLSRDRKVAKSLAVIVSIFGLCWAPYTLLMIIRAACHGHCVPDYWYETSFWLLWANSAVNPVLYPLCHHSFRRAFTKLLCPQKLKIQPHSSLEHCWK
T2 sequence (Q9QYN8 whole entry): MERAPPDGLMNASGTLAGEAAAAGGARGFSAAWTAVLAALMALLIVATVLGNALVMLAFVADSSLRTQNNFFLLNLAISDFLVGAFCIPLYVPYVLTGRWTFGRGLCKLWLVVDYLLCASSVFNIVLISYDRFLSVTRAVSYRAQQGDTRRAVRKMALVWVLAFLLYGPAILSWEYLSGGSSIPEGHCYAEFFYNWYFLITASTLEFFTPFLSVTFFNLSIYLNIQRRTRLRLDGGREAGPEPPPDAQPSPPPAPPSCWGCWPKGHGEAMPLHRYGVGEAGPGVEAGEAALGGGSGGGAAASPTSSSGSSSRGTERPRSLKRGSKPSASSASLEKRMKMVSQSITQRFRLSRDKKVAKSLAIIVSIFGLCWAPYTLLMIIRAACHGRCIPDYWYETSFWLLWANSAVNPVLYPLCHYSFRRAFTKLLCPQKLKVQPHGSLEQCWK

Compound `Cc1c(-c2ccc3c(c2)COC2(CCN(C4CCC4)CC2)O3)cn(C(C)C)c(=O)c1C` [Example 776] showed a melting point of 89 to 92 °C. Besides, the Ki at human H3 receptor was below 200 nM. Besides, the Ki in data set [1] is below 200 nM.

The compound `O=c1[nH]cc(-c2ccc3c(c2)COC2(CCN(C4CCC4)CC2)O3)c2ccccc12` [Example 777] registered a melting point of 202 to 204 °C. In addition, the Ki at human H3 receptor was below 200 nM. In addition, in data set [1], the Ki was below 200 nM.

In turn, `CCn1cc(-c2ccc3c(c2)COC2(CCN(C4CCC4)CC2)O3)ccc1=O` [Example 778] yielded a melting point of 156 to 158 °C. Also, on human H3 receptor, the Ki is below 200 nM. For the same compound, in data set [1], the Ki was below 200 nM.

The compound `CC(C)n1cc(Cl)c(-c2ccc3c(c2)COC2(CCN(C4CCC4)CC2)O3)cc1=O` [Example 779] registered a melting point of 179 to 181 °C. For the same compound, the Ki at human H3 receptor is below 200 nM. For the same compound, the Ki in data set [1] is below 200 nM.

Compound `CC(C)Oc1cc(-c2ccc3c(c2)COC2(CCN(C4CCC4)CC2)O3)c(Cl)cn1` [Example 780] came in with a melting point of 131 to 132 °C. In addition, at human H3 receptor, the Ki was below 200 nM. The Ki in data set [1] was below 200 nM.

As to `O=c1cc(-c2ccc3c(c2)COC2(CCN(C4CCC4)CC2)O3)c(Cl)cn1CC(F)(F)F` [Example 781], the melting point is 194 to 197 °C. Also, at human H3 receptor, the Ki is below 200 nM. For the same compound, the Ki in data set [1] is below 200 nM.

For `FC(F)(F)COc1cc(-c2ccc3c(c2)COC2(CCN(C4CCC4)CC2)O3)c(Cl)cn1` [Example 782], the melting point was 119 to 121 °C. On human H3 receptor, the Ki is below 200 nM. Besides, the Ki in data set [1] is below 200 nM.

The compound `Cc1c(-c2ccc3c(c2)COC2(CCN(C4CCC4)CC2)O3)cn(CC(F)(F)F)c(=O)c1C` [Example 783] had a melting point of 96 to 98 °C. Also, the Ki at human H3 receptor was below 200 nM. Besides, the Ki in data set [1] is below 200 nM.

Compound `O=c1c(Cl)c(-c2ccc3c(c2)COC2(CCN(C4CCC4)CC2)O3)ccn1CC(F)(F)F` [Example 784] gave a melting point of 71.2 to 73.6 °C. The Ki on human H3 receptor is below 200 nM. Besides, the Ki in data set [1] is below 200 nM.

With `Cc1cscc1-c1ccc2c(c1)COC1(CCN(C3CCC3)CC1)O2` [Example 785], the melting point fell in the range of 91 to 93 °C. In addition, at human H3 receptor, the Ki is below 200 nM. In addition, the Ki in data set [1] was below 200 nM.

Regarding `Cn1cc(-c2ccc3c(c2)COC2(CCN(C4CCC4)CC2)O3)c2ccccc2c1=O` [Example 786], the melting point is 207 to 209 °C. Besides, the Ki at human H3 receptor is below 200 nM. Further, the Ki in data set [1] is below 200 nM.

Consider `Cc1nc2ccccc2c(=O)n1-c1ccc2c(c1)COC1(CCN(C3CCC3)CC1)O2` [Example 787], for which the melting point fell in the range of 206 to 207 °C. In addition, on human H3 receptor, the Ki was below 200 nM. In data set [1], the Ki was below 200 nM.

In the case of `COc1ncc(-c2ccc3c(c2)COC2(CCN(C4CCC4)CC2)O3)cc1O` [Example 788], the melting point was 61 to 63 °C. Moreover, the Ki at human H3 receptor was below 200 nM. The Ki in data set [1] is below 200 nM.

Consider `CCc1nc(OC)ccc1-c1ccc2c(c1)COC1(CCN(C3CCC3)CC1)O2` [Example 789], for which the melting point lay in the range of 59 to 61 °C. Besides, the Ki on human H3 receptor is below 200 nM. In addition, the Ki in data set [1] was below 200 nM.

Compound `Cc1nc2cccc(C(F)(F)F)c2c(=O)n1-c1ccc2c(c1)COC1(CCN(C3CCC3)CC1)O2` [Example 791] displayed a melting point of 221 to 222 °C. In addition, the Ki at human H3 receptor was below 200 nM. Moreover, the Ki in data set [1] was below 200 nM.

In turn, `Cc1ccc2nc(C)n(-c3ccc4c(c3)COC3(CCN(C5CCC5)CC3)O4)c(=O)c2c1` [Example 792] gave a melting point of 149 to 152 °C. In addition, the Ki on human H3 receptor was below 200 nM. Also, the Ki in data set [1] is below 200 nM.

In the case of `CCS(=O)(=O)c1c[nH]c(=O)cc1-c1ccc2c(c1)COC1(CCN(C3CCC3)CC1)O2` [Example 793], the melting point lay in the range of 190 to 192 °C. In addition, at human H3 receptor, the Ki is below 200 nM. For the same compound, the Ki in data set [1] was below 200 nM.

The compound `COc1ccc2nc(C)n(-c3ccc4c(c3)COC3(CCN(C5CCC5)CC3)O4)c(=O)c2c1` [Example 794] showed a melting point of 155 to 157 °C. Besides, the Ki at human H3 receptor was below 200 nM. For the same compound, the Ki in data set [1] was below 200 nM.

`COc1cc(C)c(-c2ccc3c(c2)COC2(CCN(C4CCC4)CC2)O3)c(C)n1` [Example 795]: the melting point lay within 149.8 to 150.4 °C. In addition, at human H3 receptor, the Ki is below 200 nM. In addition, in data set [1], the Ki is below 200 nM.

In the case of `COc1nc(C)c(-c2ccc3c(c2)COC2(CCN(C4CCC4)CC2)O3)cc1C#N` [Example 796], the melting point was 215 to 217 °C. The Ki on human H3 receptor was below 200 nM. Also, in data set [1], the Ki was below 200 nM.

On to `COc1ccc(-c2ccc3c(c2)CCC2(CCN(C4CCC4)CC2)O3)c(C)n1` [Example 797], for which the melting point was 72 to 73 °C. Also, on human H3 receptor, the Ki is below 200 nM. Also, in data set [1], the Ki is below 200 nM.

`COCc1cc(=O)[nH]cc1-c1ccc2c(c1)COC1(CCN(C3CCC3)CC1)O2` [Example 798] registered a melting point of 217 to 219 °C. In addition, the Ki on human H3 receptor is below 200 nM. Also, in data set [1], the Ki was below 200 nM.

Compound `Cc1c(-c2ccc3c(c2)COC2(CCN(C4CCC4)CC2)O3)c[nH]c(=O)c1C` [Example 799] registered a melting point of 178 to 180 °C. The inhibitory constant (Ki) on human H3 receptor is below 200 nM. Moreover, the Ki in data set [1] was below 200 nM.

With `COc1ncc(-c2ccc3c(c2)COC2(CCN(C4CCC4)CC2)O3)c(C)c1C` [Example 800], the melting point fell in the range of 233 to 235 °C. Also, the Ki on human H3 receptor was below 200 nM. Besides, the Ki in data set [1] was below 200 nM.

Compound `Cc1nc2cccc(Cl)c2c(=O)n1-c1ccc2c(c1)COC1(CCN(C3CCC3)CC1)O2` [Example 801] registered a melting point of 105 to 107 °C. For the same compound, the inhibition constant Ki at human H3 receptor was below 200 nM. For the same compound, the Ki in data set [1] is below 200 nM.

Turning to `CCc1cc(OC)ncc1-c1ccc2c(c1)COC1(CCN(C3CCC3)CC1)O2` [Example 802], the melting point lay within 156 to 160 °C. For the same compound, the Ki at human H3 receptor was below 200 nM. Further, the Ki in data set [1] is below 200 nM.

The compound `CCc1cc(=O)[nH]cc1-c1ccc2c(c1)COC1(CCN(C3CCC3)CC1)O2` [Example 803] returned a melting point of 107 to 109 °C. Moreover, the Ki at human H3 receptor is below 200 nM. Further, in data set [1], the Ki is below 200 nM.

For `COCc1cc(-c2ccc3c(c2)COC2(CCN(C4CCC4)CC2)O3)cnc1OC` [Example 804], the melting point is 257 °C. Moreover, at human H3 receptor, the Ki was below 200 nM. For the same compound, the Ki in data set [1] was below 200 nM.

`COCc1cc(-c2ccc3c(c2)COC2(CCN(C4CCC4)CC2)O3)c[nH]c1=O` [Example 805] yielded a melting point of 212 to 214 °C. Also, the Ki on human H3 receptor is below 200 nM. In addition, the Ki in data set [1] was below 200 nM.

The compound `Cc1cc(=O)[nH]c(C)c1-c1ccc2c(c1)COC1(CCN(C3CCC3)CC1)O2` [Example 806] came in with a melting point of 247 to 249 °C. Also, the Ki at human H3 receptor was below 200 nM. Further, the inhibition constant Ki in data set [1] was below 200 nM.

The compound `CCc1cc(-c2ccc3c(c2)COC2(CCN(C4CCC4)CC2)O3)c(C)[nH]c1=O` [Example 808] gave a melting point of 211 to 213 °C. Besides, the Ki on human H3 receptor was below 200 nM. The Ki in data set [1] is below 200 nM.

By melting point is commonly meant the temperature of the solid-liquid transition. The Ki is a measure of affinity in units of concentration, obtained from inhibition or displacement.
